The results in this text go back to US20250288589A1, “PYRIDOPYRIMIDINES AND METHODS OF THEIR USE” (Kineta, Inc., priority 2021, published 2025).

For this experiment, the target named is T1, full-length human PIKFYVE (Homo sapiens, UniProt Q9Y2I7, L932S/Q1183K/Q995L/S1033A/S696N/T998S).
T1 construct: A full-length human PIKFYVE [1-2098(end) amino acids and S696N, L932S, Q995L, T998S, S1033A and Q1183K; purchased Carna Biosciences; host or cells: baculovirus expression system
Kind of experiment: PIKfyve biochemical assay (ADP-Glo Kinase assay, Carna Biosciences). The conditions noted are these: GST-PIKFYVE, 10 μM to 3 nM in duplicate, read-out: hPIKfyve IC50.
Text: (§1) PIKfyve Biochemical Assay. The biochemical PIKFyve inhibition assays were run by Carna Biosciences according to proprietary methodology based on the Promega ADP-Glo™ Kinase assay. A full-length human PIKFYVE [1-2098(end) amino acids and S696N, L932S, Q995L, T998S, S1033A and Q1183K of the protein having the sequence set forth in NCBI Reference Sequence No. NP_055855.2] was expressed as N-terminal GST-fusion protein (265 kDa) using baculovirus expression system. GST-PIKFYVE was purified by using glutathione sepharose chromatography and used in an ADP-Glo™ Kinase assay (Promega). Reactions were set up by adding the test compound solution, substrate solution, ATP solution and kinase solution, each at 4× final concentrations. Reactions were prepared with assay buffer (50 mM MOPS, 1 mM DTT, pH7.2), mixed, and incubated in black 384 well polystyrene plates for 1 hour at room temperature. ADP-Glo™ reagent was then added for 40 minutes, followed by kinase detection reagent for an additional 40 minutes. The kinase activity was evaluated by detecting relative light units on a luminescence plate reader. Samples were run in duplicate from 10 μM to 3 nM. […] IC50 values were calculated from concentration vs % inhibition curves by fitting to a four-parameter logistic curve.
as §1, with “The” for “PIKfyve Biochemical Assay. The”, “accession number” for “the protein having the sequence set forth in NCBI Reference Sequence No.”, “uM” for “μM”
(In general: ADP-Glo first removes unused ATP, then detects ADP through luciferase.)

Counter-ions that a name gives are not always drawn.

T1 sequence (Q9Y2I7 whole entry S696N/L932S/Q995L/T998S/S1033A/Q1183K): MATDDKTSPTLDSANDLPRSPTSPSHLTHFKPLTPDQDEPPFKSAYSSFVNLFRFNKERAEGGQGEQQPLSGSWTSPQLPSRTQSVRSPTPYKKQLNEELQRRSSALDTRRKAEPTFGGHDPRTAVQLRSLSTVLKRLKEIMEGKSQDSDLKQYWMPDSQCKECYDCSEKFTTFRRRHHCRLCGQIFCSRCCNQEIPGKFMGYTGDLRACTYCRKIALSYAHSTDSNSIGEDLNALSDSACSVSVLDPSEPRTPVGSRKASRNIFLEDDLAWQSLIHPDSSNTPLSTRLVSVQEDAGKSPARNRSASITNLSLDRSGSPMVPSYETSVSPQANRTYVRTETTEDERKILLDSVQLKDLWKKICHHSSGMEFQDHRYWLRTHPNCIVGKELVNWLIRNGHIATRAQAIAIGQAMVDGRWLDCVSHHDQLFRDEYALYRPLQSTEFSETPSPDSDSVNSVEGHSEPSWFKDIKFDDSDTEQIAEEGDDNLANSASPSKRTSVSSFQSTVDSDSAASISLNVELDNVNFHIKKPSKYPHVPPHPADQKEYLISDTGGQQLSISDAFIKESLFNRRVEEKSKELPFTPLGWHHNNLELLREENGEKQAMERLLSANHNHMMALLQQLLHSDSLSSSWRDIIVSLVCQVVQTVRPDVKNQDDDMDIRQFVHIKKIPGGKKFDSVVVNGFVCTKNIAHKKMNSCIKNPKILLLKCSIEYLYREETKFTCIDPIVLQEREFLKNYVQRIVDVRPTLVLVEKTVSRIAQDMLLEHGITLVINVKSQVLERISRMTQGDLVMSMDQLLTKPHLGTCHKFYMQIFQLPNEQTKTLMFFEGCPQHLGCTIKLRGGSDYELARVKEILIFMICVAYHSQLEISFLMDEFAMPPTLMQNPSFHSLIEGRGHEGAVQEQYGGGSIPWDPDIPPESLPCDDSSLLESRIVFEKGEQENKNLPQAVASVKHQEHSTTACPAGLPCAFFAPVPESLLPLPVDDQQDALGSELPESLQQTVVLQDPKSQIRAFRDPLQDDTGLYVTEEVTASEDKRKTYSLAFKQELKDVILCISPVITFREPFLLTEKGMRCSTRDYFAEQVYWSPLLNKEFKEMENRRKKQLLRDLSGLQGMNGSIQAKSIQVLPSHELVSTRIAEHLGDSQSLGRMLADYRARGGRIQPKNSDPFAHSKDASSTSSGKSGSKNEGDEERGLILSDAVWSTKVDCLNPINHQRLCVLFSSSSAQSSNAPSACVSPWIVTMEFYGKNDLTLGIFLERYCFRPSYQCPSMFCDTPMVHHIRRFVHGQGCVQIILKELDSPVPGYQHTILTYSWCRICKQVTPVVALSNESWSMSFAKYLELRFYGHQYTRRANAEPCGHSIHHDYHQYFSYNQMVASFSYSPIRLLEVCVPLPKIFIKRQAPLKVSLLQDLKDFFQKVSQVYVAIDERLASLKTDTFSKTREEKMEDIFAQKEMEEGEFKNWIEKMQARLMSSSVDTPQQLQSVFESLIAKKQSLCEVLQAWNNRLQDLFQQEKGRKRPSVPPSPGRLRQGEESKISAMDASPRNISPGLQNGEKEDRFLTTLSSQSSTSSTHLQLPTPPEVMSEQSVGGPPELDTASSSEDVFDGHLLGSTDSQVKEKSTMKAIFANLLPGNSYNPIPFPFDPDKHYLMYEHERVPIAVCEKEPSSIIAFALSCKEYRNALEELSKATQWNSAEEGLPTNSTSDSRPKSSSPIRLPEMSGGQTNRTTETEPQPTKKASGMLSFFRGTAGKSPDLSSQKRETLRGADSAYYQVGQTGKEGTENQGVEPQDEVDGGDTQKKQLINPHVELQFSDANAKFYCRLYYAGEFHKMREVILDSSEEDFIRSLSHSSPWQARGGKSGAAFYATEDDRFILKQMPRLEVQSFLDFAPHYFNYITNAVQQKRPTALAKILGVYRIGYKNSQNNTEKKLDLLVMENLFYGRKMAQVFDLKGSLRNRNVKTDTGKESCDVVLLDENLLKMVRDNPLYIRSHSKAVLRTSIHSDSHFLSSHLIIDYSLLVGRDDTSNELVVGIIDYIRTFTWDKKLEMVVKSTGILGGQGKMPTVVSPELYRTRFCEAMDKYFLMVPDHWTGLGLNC

Regarding `c1cc(Oc2nc(N3CCOCC3)c3ncccc3n2)cc(-c2cn[nH]c2)c1` [Compound 47, 4-(2-(3-(1H-pyrazol-4-yl)phenoxy)pyrido[3,2-d]pyrimidin-4-yl)morpholine], the half-maximal inhibitory concentration (IC50) is greater than 10000 nM. The same measure for `c1ccc(-c2ccn(-c3nc(N4CCOCC4)c4ncc(-c5ccncc5)cc4n3)n2)cc1` [Compound 48, 4-(2-(3-phenyl-1H-pyrazol-1-yl)-7-(pyridin-4-yl)pyrido[3,2-d]pyrimidin-4-yl)morpholine]: 10 to 100 nM; for `c1cncc(-c2ccn(-c3nc(N4CCOCC4)c4ncc(-c5ccc6c(c5)OCCO6)cc4n3)n2)c1` [Compound 49, 4-(7-(2,3-dihydrobenzo[b][1,4]dioxin-6-yl)-2-(3-(pyridin-3-yl)-1H-pyrazol-1-yl)pyrido[3,2-d]pyrimidin-4-yl)morpholine]: 1000 to 10000 nM; for `c1ncc(-c2ccn(-c3nc(N4CCOCC4)c4ncc(C5CCOCC5)cc4n3)n2)cn1` [Compound 50, 4-[2-(3-pyrimidin-5-ylpyrazol-1-yl)-7-tetrahydropyran-4-yl-pyrido[3,2-d]pyrimidin-4-yl]morpholine]: greater than 10000 nM. On to `c1cc(-c2ccn(-c3nc(N4CCOCC4)c4ncc(C5CCOCC5)cc4n3)n2)ccn1` [Compound 51, 4-[2-[3-(4-pyridyl)pyrazol-1-yl]-7-tetrahydropyran-4-yl-pyrido[3,2-d]pyrimidin-4-yl]morpholine], for which the concentration for half-maximal inhibition (IC50) lay in the range of 1000 to 10000 nM.

Take `c1cncc(-c2ccn(-c3nc(N4CCOCC4)c4ncc(C5CCOCC5)cc4n3)n2)c1` [Compound 52, 4-[2-[3-(3-pyridyl)pyrazol-1-yl]-7-tetrahydropyran-4-yl-pyrido[3,2-d]pyrimidin-4-yl]morpholine]: the IC50 is 1000 to 10000 nM. As for `c1cc(-c2ccn(-c3nc(N4CCOCC4)c4ncc(C5CCOCC5)cc4n3)n2)ncn1` [Compound 53, 4-[2-(3-pyrimidin-4-ylpyrazol-1-yl)-7-tetrahydropyran-4-yl-pyrido[3,2-d]pyrimidin-4-yl]morpholine], the IC50 was greater than 10000 nM. `COc1cnc2c(N3CCOCC3)nc(-n3ccc(-c4cccc(C)c4)n3)nc2c1` [Compound 54, 4-(7-methoxy-2-(3-m-tolyl-1H-pyrazol-1-yl)pyrido[3,2-d]pyrimidin-4-yl)morpholine]: the IC50 was less than 10 nM. Consider `c1ccc(-c2ccn(-c3nc(N4CCOCC4)c4ncc(C5CC5)cc4n3)n2)cc1` [Compound 55, 4-[7-cyclopropyl-2-(3-phenylpyrazol-1-yl)pyrido[3,2-d]pyrimidin-4-yl]morpholine], for which the IC50 is 10 to 100 nM. Regarding `CN1CCN(c2cnc3c(N4CCOCC4)nc(-n4cc(-c5ccccc5)cn4)nc3c2)C(=O)C1` [Compound 56, 4-methyl-1-(4-morpholino-2-(4-phenyl-1H-pyrazol-1-yl)pyrido[3,2-d]pyrimidin-7-yl)piperazin-2-one], the IC50 was in the range of 10 to 100 nM. For the compound `CC(C)(C)OC(=O)N1CCC(Cc2ccn(-c3nc(N4CCOCC4)c4ncccc4n3)n2)C1` (centres unmarked) [Compound 63, tert-butyl 3-[[1-(4-morpholinopyrido[3,2-d]pyrimidin-2-yl)pyrazol-3-yl]methyl]pyrrolidine-1-carboxylate], the IC50 lay within 1000 to 10000 nM. Turning to `c1cnc2c(N3CCOCC3)nc(-n3ccc(CC4CCNC4)n3)nc2c1` (centres unmarked) [Compound 64, 4-[2-[3-(pyrrolidin-3-ylmethyl)pyrazol-1-yl]pyrido[3,2-d]pyrimidin-4-yl]morpholine], the IC50 lay in the range of 1000 to 10000 nM. Consider `COc1cncc(-c2cnc3c(N4CCOCC4)nc(-c4ccn(CC(F)(F)F)n4)nc3c2)c1` [Compound 65, 4-(7-(5-methoxypyridin-3-yl)-2-(1-(2,2,2-trifluoroethyl)-1H-pyrazol-3-yl)pyrido[3,2-d]pyrimidin-4-yl)morpholine], for which the concentration for half-maximal inhibition (IC50) was in the range of 1000 to 10000 nM. Consider `FC(F)(F)Cn1ccc(-c2nc(N3CCOCC3)c3ncccc3n2)n1` [Compound 68, 4-(2-(1-(2,2,2-trifluoroethyl)-1H-pyrazol-3-yl)pyrido[3,2-d]pyrimidin-4-yl)morpholine], for which the IC50 fell in the range of 1000 to 10000 nM.

For the compound `c1cnc2c(N3CCOCC3)nc(-c3n[nH]c4ccccc34)nc2c1` [Compound 69, 4-[2-(1H-indazol-3-yl)pyrido[3,2-d]pyrimidin-4-yl]morpholine], the IC50 was in the range of 1000 to 10000 nM.

For `Cc1cccc(-c2cc(O)n(-c3nc(N4CCOCC4)c4ncc(-c5ccoc5)cc4n3)n2)c1` [Compound 70, 1-(7-(furan-3-yl)-4-morpholinopyrido[3,2-d]pyrimidin-2-yl)-3-m-tolyl-1H-pyrazol-5-ol], the half-inhibitory concentration (IC50) is less than 10 nM. Turning to `c1ccc(-c2cn(-c3nc(N4CCOCC4)c4ncccc4n3)nn2)cc1` [Compound 74, 4-(2-(4-phenyl-1H-1,2,3-triazol-1-yl)pyrido[3,2-d]pyrimidin-4-yl)morpholine], the IC50 was 100 to 1000 nM.

As for `c1ccc(-c2cnn(-c3nc(N4CCOCC4)c4ncccc4n3)n2)cc1` [Compound 75, 4-(2-(4-phenyl-2H-1,2,3-triazol-2-yl)pyrido[3,2-d]pyrimidin-4-yl)morpholine hydrochloride], the IC50 lay in the range of 10 to 100 nM. Regarding `Cc1ccc2c(c1)nnn2-c1nc(N2CCOCC2)c2ncccc2n1` [Compound 76, 4-(2-(5-methyl-1H-benzo[d][1,2,3]triazol-1-yl)pyrido[3,2-d]pyrimidin-4-yl)morpholine], the IC50 lay within 100 to 1000 nM.

For `O=C1N(c2nc(N3CCOCC3)c3ncccc3n2)CCN1C1CCCC1` [Compound 78, 1-cyclopentyl-3-(4-morpholinopyrido[3,2-d]pyrimidin-2-yl)imidazolidin-2-one], the IC50 was greater than 10000 nM. In the case of `O=c1[nH]c(-c2ccccc2)nn1-c1nc(N2CCOCC2)c2ncccc2n1` [Compound 82, 2-(4-morpholinopyrido[3,2-d]pyrimidin-2-yl)-5-phenyl-4H-1,2,4-triazol-3-one] it was 100 to 1000 nM. Take `c1cnc2c(N3CCOCC3)nc(-c3ccnc(C4CCNCC4)n3)nc2c1` [Compound 84, 4-[2-[2-(4-piperidyl)pyrimidin-4-yl]pyrido[3,2-d]pyrimidin-4-yl]morpholine]: the IC50 is greater than 10000 nM. With `CN1CCC(c2nccc(-c3nc(N4CCOCC4)c4ncccc4n3)n2)CC1` [Compound 85, 4-[2-[2-(1-methyl-4-piperidyl)pyrimidin-4-yl]pyrido[3,2-d]pyrimidin-4-yl]morpholine], the IC50 is greater than 10000 nM.

`c1ccc(-c2nccc(-c3nc(N4CCOCC4)c4ncccc4n3)n2)cc1` [Compound 90, 4-(2-(2-phenylpyrimidin-4-yl)pyrido[3,2-d]pyrimidin-4-yl)morpholine]: the IC50 fell in the range of 10 to 100 nM. On to `c1cc(-c2nc(N3CCOCC3)c3ncccc3n2)nc(C2CCNCC2)c1` [Compound 92, 4-[2-[6-(4-piperidyl)-2-pyridyl]pyrido[3,2-d]pyrimidin-4-yl]morpholine], for which the IC50 was in the range of 1000 to 10000 nM. Regarding `COc1cnc(-c2ccccc2)nc1-c1nc(N2CCOCC2)c2ncccc2n1` [Compound 93, 4-(2-(5-methoxy-2-phenylpyrimidin-4-yl)pyrido[3,2-d]pyrimidin-4-yl)morpholine], the 50% inhibitory concentration (IC50) is 100 to 1000 nM. The same measure for `Oc1cnc(-c2ccccc2)nc1-c1nc(N2CCOCC2)c2ncccc2n1` [Compound 94, 4-(4-morpholinopyrido[3,2-d]pyrimidin-2-yl)-2-phenylpyrimidin-5-ol]: 10 to 100 nM; for `c1ccc(-c2nccc(-c3nc(N4CCOCC4)c4ncc(N5CCOCC5)cc4n3)n2)cc1` [Compound 95, 4,4′-(2-(2-phenylpyrimidin-4-yl)pyrido[3,2-d]pyrimidine-4,7-diyl)dimorpholine]: 10 to 100 nM; for `Cc1cnc(-c2ccccc2)nc1-c1nc(N2CCOCC2)c2ncccc2n1` [Compound 96, 4-(2-(5-methyl-2-phenylpyrimidin-4-yl)pyrido[3,2-d]pyrimidin-4-yl)morpholine]: 1000 to 10000 nM. With `c1ccc(-c2cncc(-c3nc(N4CCOCC4)c4ncccc4n3)n2)cc1` [Compound 97, 4-(2-(6-phenylpyrazin-2-yl)pyrido[3,2-d]pyrimidin-4-yl)morpholine], the half-maximal inhibitory concentration (IC50) lay in the range of 100 to 1000 nM. The same measure for `c1cnc2c(N3CCOCC3)nc(-c3ccnc(-c4ccoc4)n3)nc2c1` [Compound 98, 4-(2-(2-(furan-3-yl)pyrimidin-4-yl)pyrido[3,2-d]pyrimidin-4-yl)morpholine]: 1000 to 10000 nM. In the case of `c1coc(-c2nccc(-c3nc(N4CCOCC4)c4ncccc4n3)n2)c1` [Compound 99, 4-(2-(2-(furan-2-yl)pyrimidin-4-yl)pyrido[3,2-d]pyrimidin-4-yl)morpholine], the IC50 was in the range of 1000 to 10000 nM.

As usually defined, the IC50 is the concentration at which inhibition is half-maximal.
